# Source: patent US20230340012A1, “NATURAL AND SYNTHETIC COMPOUNDS FOR TREATING CANCER AND OTHER DISEASES” (PACIFIC ARROW LIMITED, priority 2009, published 2023)
# Legend:
# [1] = tested on: cancer cells; assay: Inhibition of cancer growth, cancer invasion, cell invasion or cancer cell invasion; format: cell-based
# Description: The program is based on our purification methods and biological assays including the MTT assay. See International Application No. PCT/US05/31900, filed Sep. 7, 2005, U.S. Serial No. 11/289,142, filed Nov. 28, 2005, and U.S. Serial No. 11/131551, filed May 17, 2005, and PCT/US2008/002086, 1188-ALA-PCT, filed Feb. 15, 2008, 12/344,682, 1020-B1-US, filed Dec. 29, 2008. The details of Analysis of gene expression of ES2 cells after Y-treatment by Microarray, Data Analysis Methods and Western blot in PCT/US2008/002086, 1188-ALA-PCT, filed Feb. 15, 2008, and the cell invasion experiments methods in International Application PCT/US2010/0042240, filed Jul. 16, 2010.
# [2] = tested on: HTB-9; assay: MTT assay, bladder (HTB-9); format: cell-based, human
# Method: (§1) Cells. HTB-9 (bladder), HeLa-S3 (cervix), DU145 (prostate), H460 (lung), MCF-7 (breast), K562 (leukemia), HCT116 (colon), HepG2 (liver), U2OS (bone), T98G (brain), SK-MEL-5 (Skin) and OVCAR 3, ES2 (ovary), Pancreas (Capan), Mouth (KB), Kidney(A498).
# (§2) MTT Assay. The procedure for MTT assay followed the method described by Carmichael et al. (1987) with modifications. The cells were seeded into a 96-well plate at for 24 hours before drug-treatment. The cells were then exposed to the drugs for 48, 72, or 96 hours. After the drug-treatment, MTT (0.5 mg/mL) was added to cultures and incubated for an hour. The formazan (product of the reduction of tetrazolium by viable cells) formed and was dissolved with DMSO and the O.D. at 490 nm, and was measured by an ELISA reader. The MTT level of the cells before drug-treatment was also measured (T0). The % cell-growth (%G) is calculated as: %G = (TD-T0 / TC-T0) x 100(1), where TC or TD represents O.D. readings of control or drug-treated cells. When T0 > TD, then the cytotoxicity (LC) expressed as % of the control is calculated as: %LC = (TD-T0 / T0) × 100(2).
# [3] = tested on: HeLa; assay: MTT assay, cervix (HeLa); format: cell-based, human
# Method: as §1, §2
# [4] = tested on: MCF-7; assay: MTT assay, breast (MCF-7); format: cell-based, human
# Method: as §1, §2
# [5] = tested on: A498; assay: MTT assay, kidney (A498); format: cell-based, human
# Method: as §1, §2
# [6] = tested on: DU145; assay: MTT assay, prostate (DU145); format: cell-based, human
# Method: as §1, §2
# [7] = tested on: OVCAR3; assay: MTT assay, ovary (OVCAR3); format: cell-based, human; conditions: MTT
# Method: as §1, §2
# [8] = tested on: HCT116; assay: MTT assay, colon (HCT116); format: cell-based, human
# Method: as §1, §2
# [9] = tested on: Capan; assay: MTT assay, pancreas (Capan); format: cell-based, human
# Method: as §1, §2
# • A. Cells: Capan cells are derived from Human pancreas carcinoma (pancreas). Cells were grown in RPMI 1640 medium supplemented with 10% FCS, antibiotics and glutamine. 10000 cells were seeded in a well (96-welled plate) for one day before drug-treatment • B. Drug treatment: • -- Drug: Tig-S (stored as a 1000x stock solution in DMSO) was used. • -- Drug concentration used: from 0.15 - 20 ug/ml. • -- Drug-treatment was carried out for 3 days. • C. At the end of the drug-treatment, cytotoxic test was performed with MTT assay. The percentage of drug-treated cells’ growth as compared to those of the no drug control is determined.
# [10] = tested on: K562; assay: MTT assay, leukemia (K562); format: cell-based, human
# Method: as §1, §2
# [11] = tested on: SK-Mel-5; assay: MTT assay, skin (SK-Mel-5); format: cell-based, human
# Method: as §1, §2
# [12] = tested on: ES2 cells; assay: Inhibition of cell adhesion, ES2; format: cell-based, human; conditions: for ES2 cells attached to flasks compared to no drug controls / unattached cells alive: 5 ug/ml; for ES2 cells attached to flasks compared to no drug controls: 5 hours; for unattached cells alive: trypan Blue exclusion; for unattached cells alive / cells attached to flasks: ES2 or Hey8A; for cells attached to flasks: 10 ug/ml
# Method: (§3) Methods and Results. ES2 or Hey8A cells were plated in T25 flasks with medium containing 5 ug/ml of compounds selected from structure (2A) including E4A-Tig-R, E4A-Tig-V, E4A-Tig-S, E4A-Tig-N, E4A-Tig-Q, E4A-Tig-T. Cultures were incubated for 5 hours. Attached cells were removed from flasks by trypsinization and the numbers/amounts were counted. Compared to no drug controls, 80 ± 4% of ES2 cells and 60 ± 4% of Hey8A cells were found attached to flasks under this condition. At 5 ug/ml of above compounds, over 90% of unattached cells are alive as determined by the trypan Blue exclusion assay and by their ability to re-attach to flasks when plating in medium without tested compounds. However, with 10 ug/ml tested compounds, less than 40% of cells attached to flasks and many of them are dead cells.
# [13] = tested on: U2OS; assay: MTT assay, bone (U2OS); format: cell-based, human
# Method: as §1, §2
# [14] = tested on: Hey8A cells; assay: Inhibition of cell adhesion, Hey8A; format: cell-based; conditions: 5 ug/ml, 5 hours
# Method: as §3
# [15] = tested on: T98G; assay: MTT assay, brain (T98G); format: cell-based, human
# Method: as §1, §2
# [16] = tested on: HepG2; assay: MTT assay, liver (HepG2); format: cell-based, human
# Method: as §1, §2
# [17] = tested on: Fibronectin; assay: Fibronectin secretion experiment (Western blot); format: cell-based; conditions: bladder, cervix, prostate, lung, breast, leukemia, colon, liver, bone, brain, skin, ovary, pancreas, mouth, kidney cells; 24 hours
# Method: Western blot is applied in this invention as a method to detect the specific proteins in treated and untreated cells with compounds in this invention, wherein the cells are bladder, cervix, prostate, lung, breast, leukemia, colon, liver, bone, brain, Skin, ovary, Pancreas(Capan), Mouth(KB), Kidney.
# Cells: targeted cells were grown in RPMI 1640 medium. 1.5 million cells were seeded in a T25 flask and grown for 24 hours before drug-treatment.
# Drug-treatment: Cells cultures were replaced with fresh RPMI medium containing either 2.5 ul of DMSO (as control) [D]; or 10, 20, 30, 40, 80 ug/ml of tested compounds.
# After 24 hours, aliquot of culture medium was taken out for Fibronectin determination (Western blot method).
# Cell viability at 24 hours was determined by MTT assay. Cultures were replaced with RPMI medium (5 ml) with MTT and incubated for an hour. The formation of formazan was dissolved in 10 ml of DMSO and OD at 570 nm was measured (MTT units). Western Blot: Spent culture medium was mixed with SDS sample buffer, boiled for 3 minutes before loading to SDS gel. Samples were applied to a 6-10% SDS gel and electrophoresis was conducted with 100 volts for 2 hours. Protein was transferred to a nitrocellulose membrane electrophoretically. The nitrocellulose blot was incubated with the first antibody and second antibody (AP conjugated, Promega S3721). The immuno-bands were developed with BCIP/NBT color development system.
# Determination of Western blot band intensity: The band-images of Western blot were captured with a digital camera and the intensity of bands was determined using “Image J” software.
# [18] = tested on: H460; assay: MTT assay, lung (H460); format: cell-based, human; conditions: MTT
# Method: as §1, §2
# Methods: • A. Cells • -- H460 cells are derived from a Human Lung large cell carcinoma. Cells were grown in RPMI 1640 medium supplemented with 10% FCS, antibiotics and glutamine. 5000 cells were seeded in a well (96-welled plate) for one day before drug-treatment • B. Drug treatment: • -- Drug: Tig-S (stored as a 1000x stock solution in DMSO) was used. • -- Drug concentration used: from 0.15 - 20 ug/ml. • -- Drug-treatment was carried out for 1, 2 and 4 days. For the 4 days incubation, cells were fed with fresh medium (with drug) on day 2. • C. At the end of the drug-treatment, cytotoxic test was performed with MTT assay. Results: • 1. Tig-S inhibits H460 cells’ growth with the IC50 of drug 3 ug/ml. • 2. […] cells growth inhibition was observed beyond drug 5 ug/ml. • 3. No dead cell was found at drug concentration in 20 ug/ml.
# [19] = tested on: KB; assay: MTT assay, mouth (KB); format: cell-based, human
# Method: as §1, §2
# [20] = tested on: ES2; assay: MTT assay, ovary (ES2); format: cell-based, human; conditions: MTT
# Method: as §1, §2
# Method: A. Cells • -WI38 is a Normal Lung fibroblast. Cells were grown in MEM medium supplemented with 10% FCS, antibiotics and glutamine. 20 K cells were seeded per well (96-welled plate) for one day before drug-treatment • -ES2 is an Ovary Clear cells carcinoma. Cells were grown in RPMI-1640 medium supplemented with 10% FCS, antibiotics and glutamine. 10 K cells were seeded per well (96-welled plate) for one day before drug-treatment.
# B. Drug treatment: • -Drug: Tig-S. stored as 1000x stock solution in DMSO. • -Drug concentration used: from 0.15 - 20 ug/ml. • -Drug-treatment was carried out for 2 days (ES2) or 6 days (WI38). For the 6 days incubation, cells were fed with fresh medium (with drug) on day 3 and 5.
# C. At the end of the drug-treatment, cytotoxic test was performed with MTT assay.
Compound,anti-cancer activity [1],IC50 of bladder (HTB-9) [2] [µg/mL],IC50 of cervix (HeLa) [3] [µg/mL],IC50 of breast (MCF-7) [4] [µg/mL],IC50 of kidney (A498) [5] [µg/mL],IC50 of prostate (DU145) [6] [µg/mL],IC50 of ovary (OVCAR3) [7] [µg/mL],IC50 of colon (HCT116) [8] [µg/mL],IC50 of pancreas (Capan) [9] [µg/mL],IC50 of leukemia (K562) [10] [µg/mL],IC50 of skin (SK-Mel-5) [11] [µg/mL],ES2 cells attached to flasks compared to no drug controls [12] [%],unattached cells alive [12],cells attached to flasks [12],IC50 of bone (U2OS) [13] [µg/mL],Hey8A cells attached to flasks compared to no drug controls [14] [%],IC50 of brain (T98G) [15] [µg/mL],IC50 of liver (HepG2) [16] [µg/mL],inhibition of fibronectin secretion [17],IC50 of lung (H460) [18] [µg/mL],also measured
CC=C(C)C(=O)OCC1(C)C(O)CCC2(C)C1CCC1(C)C2CC=C2C3CC(C)(C)C(O)C(OC(=O)C(C)=CC)C3(CO)C(O)CC21C (centres unmarked) [Tig-Q],have anti-cancer activities,10,20,18,13,15,23,22,9,6,20,80 ± 4,over 90%,less than 40%,20,60 ± 4,29,24,20-40%,18,
CC=C(C)C(=O)OCC1(C)C(OC(=O)C(C)=CC)CCC2(C)C1CCC1(C)C2CC=C2C3CC(C)(C)C(OC(=O)C(C)=CC)C(O)C3(CO)C(O)CC21C (centres unmarked) [Tig-U],,15,17,25,18,15,27,26,9,10,24,,,,23,,22,23,,19,IC50 of mouth (KB) [19]: 16 µg/mL; IC50 of ovary (ES2) [20]: 17 µg/mL
CC=C(C)C(=O)OCC1(C)C(O)CCC2(C)C1CCC1(C)C2CC=C2C3CC(C)(C)C(OC(=O)C(C)=CC)C(O)C3(COC(=O)C(C)=CC)C(O)CC21C (centres unmarked) [Tig-V],have anti-cancer activities,4,7,9,4.8,4,9,8,,4,6,80 ± 4,over 90%,less than 40%,7,60 ± 4,14,,20-40%,6.8,IC50 of mouth (KB) [19]: 4.5 µg/mL; IC50 of ovary (ES2) [20]: 2 µg/mL
